Reference: paper PMC10610545, “Preclinical Evaluation of an Imidazole-Linked Heterocycle for Alzheimer’s Disease” (Pharmaceutics, 2023)

Tests used:
[1] = system: HT-22 mouse hippocampal neuronal cell line; assay: Cytotoxicity of compounds alone, MTT assay, HT-22; assay type: cell-based; settings: HT-22, 24 h, escalating concentrations
Description: In the study of neurotoxicity associated with AD, the HT22 mouse hippocampal neuronal cell line has been recognized as an effective cell model. HT22 cells were purchased from Merck-Sigma-Aldrich (SCC12, Madrid, Spain) and cultured in DMEM-F12 (Gibco, Fisher Scientific, Madrid, Spain) supplemented with foetal bovine serum (FBS, 10%) and 1% penicillin/streptomycin under standard conditions (37 °C, 5% CO2). The human dopaminergic cell line SH-SY5Y, in turn, has been widely used as an in vitro model to study the pathogenesis of PD associated with dopaminergic degeneration. Cells, acquired from the American Type Culture Collection (ATCC, Rockville, MD, USA, Ref.CRL-2266), were grown in RPMI medium (Gibco) supplemented with glutamine (2 mM), 10% FBS, and 1% penicillin/streptomycin under standard conditions. Semiconfluent cells (90%) were seeded on 96-well plates at 3 × 10^4 per well and incubated for 24 h before treatment.
Neuronal cultures, HT-22 and SH-SY5Y, seeded on 96-well plates were treated with LSL33, LSL34, and LSL60101 for 24 h, and viability was assessed using the MTT assay. […] Then, cultures were treated for 1h with LSL33 at 2 μM and LSL34 and LSL60101 at 1 μM. This dose was chosen based on previous studies. Subsequently, HT-22 cultures were exposed to glutamate (10 mM, Merck-Sigma), while SH-SY5Y cultures received 6-hydroxydopamine (6-OHDA, 35 μM, Merck-Sigma). The cells were then incubated for a minimum of 16 h. Finally, the cellular viability and nitrite production of the cultures were assessed.
The assessment of cell viability was conducted using the 3-(4,5-dimethylthiazol-2-yl)-5-(3-carboxymethoxyphenyl)-2-(4-sulfophenyl)-2H-tetrazolium (MTT) assay, following the instructions provided by the manufacturer (Roche Diagnostic, Darmstadt, Germany). […] The absorbance of the solution was measured at 595–650 nm using a spectrophotometer. The experiments were performed at least three times, and the results were expressed as a percentage of the control. […]

[2] = PAMPA-BBB permeation assay; assay type: in vitro ADME, porcine; settings: pig, PBS/EtOH (70:30), mean ± SD, read-out: Permeability Pe
Description: In vitro Blood-Brain Barrier Permeation Assay
To evaluate the brain penetration of the different compounds, a parallel artificial membrane permeation assay for blood-brain barrier was used, following the method described by Di et al.1 The in vitro permeability (Pe) of fourteen commercial drugs (see Table S1) through lipid extract of porcine brain membrane together with the test compounds were determined. Commercial drugs and assayed compounds were tested using a mixture of PBS:ETOH (70:30). Assay validation was made by comparing the experimental permeability with the reported values of the commercial drugs by bibliography and lineal correlation between experimental and reported permeability of the fourteen commercial drugs using the parallel artificial membrane permeation […]
From this equation and taking into account the limits established by Di et al. for BBB permeation, we established the ranges of permeability […]
predictive penetration in the CNS used as references.
1 Di, L.; Kerns, E. H.; Fan, K.; McConnell, O. J.; and Carter, G. T. High throughput artificial membrane permeability assay for blood-brain barrier.

[3] = biological target: imidazoline I2 receptors (I2-IR); assay: Competition binding against [3H]2-BFI, membranes from post-mortem human frontal cortex; settings: for Ki: corresponds to pKiH, read-out: Ki of the high-affinity I2 site; for [3H]-2-BFI I2 pKi (One Site): monophasic fit; for [3H]-2-BFI I2 pKi (Two Sites), high affinity (pKiH) / [3H]-2-BFI I2 pKi (Two Sites), low affinity (pKiL): two-site model; for [3H]-2-BFI I2 pKi (Two Sites), high affinity (pKiH): high-affinity site; for [3H]-2-BFI I2 pKi (Two Sites), low affinity (pKiL): low-affinity site
Excerpt: The inhibition constant (Ki) for each compound was obtained and is expressed as the corresponding pKi. The selectivity for these two receptors was expressed by the I2/α2 index, calculated as the antilogarithm of the […] between pKi values for I2-IR and pKi values for α2-AR.
Preparation of cellular membranes.
Human brain samples were obtained at autopsy in the Basque Institute of Legal Medicine, Bilbao, Spain. Samples from the prefrontal cortex (Brodmann’s area 9) were dissected at the time of autopsy and immediately stored at -70 °C until assay. The study was developed in compliance with policies of research and ethical review boards for postmortem brain studies.
To obtain cellular membranes (P2 fraction) the different samples were homogenized using an ultraturrax in 10 volumes of homogenization buffer (0.25 M sucrose, 5 mM Tris–HCl, pH 7.4).
The crude homogenate was centrifuged for 5 min at 1000 g (4 °C) and the supernatant was centrifuged again for 10 min at 40,000 g (4 °C). The resultant pellet was washed twice in 5 volumes of homogenization buffer and recentrifuged in similar conditions. Protein content was measured according to the method of Bradford using BSA as standard.
Competition Binding Assays.
The pharmacological activity of the compounds was evaluated through competition binding studies against the I2-IR selective radioligand [3H]2-BFI or the α2-adrenergic receptor selective radioligand [3H]RX821002. Specific binding was measured in 0.25 mL aliquots (50 mM Tris-HCl, pH 7.5) containing 100 µg of membranes, which were incubated in 96-well plates either with […]
Incubations were terminated by separating free ligand from bound ligand by rapid filtration […]
counted for radioactivity by liquid scintillation spectrometry using a MicroBeta TriLux counter (PerkinElmer). Specific binding was determined and plotted as a function of the compound concentration. Nonspecific binding was determined in the presence of idazoxan (10–5 M), a compound with well stablished affinity for I2-IR and α2-adrenergic receptors, in [3H]2-BFI and [3H]RX821002 assays. To obtain the inhibition constant (Ki) analyses of competition experiments were performed by nonlinear regression using the GraphPad Prism program. Ki values were normalized to pKi values. I2-IR/α2 selectivity index was calculated as the antilogarithm of the difference between pKi values for I2-IR and pKi values for α2-ARs.

Papp [2] [×10⁻⁶ cm/s]	[3H]-2-BFI I2 pKi (One Site) [3]	[3H]-2-BFI I2 pKi (Two Sites), high affinity (pKiH) [3]	Selectivity I2/α2 ([3]; antilog (pKi I2-IR − pKi α2-AR))	Compound	cytotoxicity (MTT viability) [1]	Ki [3] [nM]	[3H]-2-BFI I2 pKi (Two Sites), low affinity (pKiL) [3]
14.1 ± 0.5	5.58 ± 0.31	9.23 ± 0.36	–	Cl.c1ccc2oc(-n3ccnc3)cc2c1 [LSL34, 1-(Benzofuran-2-yl)-1H-imidazole hydrochloride]	None of the compounds tested were cytotoxic	–	–
13.6 ± 0.4	6.67 ± 0.09	8.17 ± 0.19	3090	c1ccc2oc(-c3ncc[nH]3)cc2c1 [LSL60101, reference compound]	None of the compounds tested were cytotoxic	6.7	6.02 ± 0.10

Compound	Papp [2] [×10⁻⁶ cm/s]	[3H]-2-BFI I2 pKi (One Site) [3]	[3H]-2-BFI I2 pKi (Two Sites), high affinity (pKiH) [3]	Selectivity I2/α2 ([3]; antilog (pKi I2-IR − pKi α2-AR))	cytotoxicity (MTT viability) [1]	Ki [3] [nM]	[3H]-2-BFI I2 pKi (Two Sites), low affinity (pKiL) [3]
Cl.c1ccc2sc(-c3ncc[nH]3)cc2c1 [LSL33, 2-(Benzo[b]thiophene-2-yl)-1H-imidazole hydrochloride]	8.1 ± 0.4	5.95 ± 0.24	10.1 ± 0.57	–	None of the compounds tested were cytotoxic	0.079	5.68 ± 0.25
